Measured values as given in US11549123B2, “Plant EPSP synthases and methods of use” (PIONEER HI-BRED INTERNATIONAL, INC., priority 2015, dated 2023).
Where a chain is given by its changes, count along the chain named.

Assays:
[1] = test system: EPSPS with TIPS mutations (T103I and P107S, as in GA21); conditions: Funke et al. 2009; Yu et al. 2015; cited from earlier work
[2] = target: T1, Zea mays EPSPS variant Zm-H6 (868-H6) (Zea mays, UniProt O24566, A1R/A3W/A415G/A71Q/D401G/E301S/E390G/G101A/I207L/K83R/L97C/T278A/T360S/T440Q/V437R); experiment: Rapid two-rate method for (kcat/KM)*KI, Zm-H6; assay type: biochemical; conditions: [E] 0.07 uM, [Gly] 1000 uM
T1 sequence (O24566 with tags, fused parts or gaps A1R/A3W/A71Q/K83R/L97C/G101A/I207L/T278A/E301S/T360S/E390G/D401G/A415G/V437R/T440Q): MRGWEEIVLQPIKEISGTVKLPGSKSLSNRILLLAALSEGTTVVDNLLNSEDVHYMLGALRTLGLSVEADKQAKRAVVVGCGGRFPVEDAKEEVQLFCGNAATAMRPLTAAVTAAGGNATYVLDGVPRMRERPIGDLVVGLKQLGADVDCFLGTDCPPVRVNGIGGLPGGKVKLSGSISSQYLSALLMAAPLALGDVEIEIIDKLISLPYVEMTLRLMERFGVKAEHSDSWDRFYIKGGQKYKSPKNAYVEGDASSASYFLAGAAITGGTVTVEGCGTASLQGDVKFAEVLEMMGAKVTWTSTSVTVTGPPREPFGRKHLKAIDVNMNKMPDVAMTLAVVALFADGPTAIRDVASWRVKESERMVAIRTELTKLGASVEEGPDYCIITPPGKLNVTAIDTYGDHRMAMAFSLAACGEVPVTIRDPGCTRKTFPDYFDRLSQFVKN
Excerpt: In the Michaelis-Menten equation for steady state reaction velocity with competitive inhibition, the term (kcat/KM)*KI cannot be isolated due to the KM and [S] terms in the denominator. However, if two rate measurements are made at different inhibitor concentrations, those terms can be eliminated by subtraction and (kcat/KM)*KI isolated, as follows:
[formula] where v0 and v1 are initial velocities without and with inhibitor but at the same substrate and enzyme concentrations. Although Equations 2 and 3 are equally valid, to generate the data in Table 1, rate measurement was performed with and without inhibitor using Equation 3. Source of Reagents, Enzyme and Variants
EPSPS activity was determined by quantifying the phosphate generated by the reaction. Release of phosphate was coupled to reaction with MESG, catalyzed by purine-nucleoside phosphorylase, using standard methods. The absorbance change that occurs was monitored continuously at 360 nm, where the extinction is 11,200 M-1 cm-1, with a Spectramax plate reader (Molecular Devices). […] The enzyme concentration was adjusted so as to generate sufficient signal without exceeding the limit for linear initial reaction rates. […]
There are several practical considerations for accurately estimating (kcat/KM)*KI with the rapid method. […] Conditions can be set so that variants with a pre-determined minimal fitness level are accurately quantified. […]

[3] = target: T2, Zea mays EPSPS variant Zm-H6 (868-H6) with A36G (H6-A36G) (Zea mays, UniProt O24566, A1R/A35G/A3W/A415G/A71Q/D401G/E301S/E390G/G101A/I207L/K83R/L97C/T278A/T360S/T440Q/V437R); experiment: Rapid two-rate method for (kcat/KM)*KI, H6-A36G; assay type: biochemical; conditions: [E] 0.07 uM, [Gly] 1000 uM
T2 sequence (O24566 with tags, fused parts or gaps A1R/A3W/A35G/A71Q/K83R/L97C/G101A/I207L/T278A/E301S/T360S/E390G/D401G/A415G/V437R/T440Q): T1 sequence (O24566 with tags, fused parts or gaps A1R/A3W/A71Q/K83R/L97C/G101A/I207L/T278A/E301S/T360S/E390G/D401G/A415G/V437R/T440Q) with A36G
Excerpt: There are several practical considerations for accurately estimating (kcat/KM)*KI with the rapid method. […] 2) The inhibitor concentration must be adjusted so as to obtain a degree of inhibition that minimally amplifies the error in the term v0-vi in Equation 3. If inhibition is too little, v0-vi will be small, and the error in the multiplier vi×v0/(v0-vi) will be large. […] 3) Substrate concentration should be set at the approximate KM of the parental variant(s), subject to the sensitivity of the assay. High substrate concentration obscures sensitivity to the inhibitor and reduces stringency for capturing improvements in KM. Depending on the necessity for speed, there exists opportunity for customizing enzyme and inhibitor concentrations. […] The rapid method was repeated for those and obtained data that correlated better with data obtained by substrate saturation analysis. For screening purposes however, that correlation step is not necessary. Conditions can be set so that variants with a pre-determined minimal fitness level are accurately quantified.
In Table 15, parameters above the heavy line for the rapid method were obtained under standard conditions. For variants shown below the heavy line, the rapid analysis was repeated with enzyme or glyphosate concentrations adjusted as needed to generate sufficient signal within the limits for linear initial rates.

SMILES: C=C(OP(=O)(O)O)C(=O)O [PEP, phosphoenolpyruvate]
- kcat relative to native kcat [1]: ~5%

SMILES: O=C(O)CNCP(=O)(O)O [glyphosate, N-phosphonomethylglycine]
- (kcat/KM)*KI [2]: 4013
- (kcat/KM)*KI [3]: 4500
